From patent US6372209B1, “Vaginal lactobacillus medicant” (Gyne Logix, Inc., priority 1997, dated 2002)

Tests used:
[1] = Accelerated shelf-life of the air-dried suppository at 35, 45 and 55° C.; assay type: physicochemical; settings: for loss of viability: over about 2.3 days
Method: Strain CTV-05 was tested in a gelatin capsule suppository during storage at 55° C., 45° C., 35° C. and at room and refrigeration temperatures. […] Between the fourth and ninth weeks counts dropped to 9.8×10^7 per suppository and have remained at 10^7 for 25 months.
At 35° C., the product lost less than 1 log of viability over about 2.3 days. At 45° C., the product lost about 2 logs of viability over about 2.3 days. At 55° C., the product lost viability rapidly within 0.5 days.

normal, healthy women = assay: Open study: vaginal colonization of healthy women by suppository; assay type: in vivo, human
Text: In this open study, a Lactobacillus suppository containing approximately 10^9 viable, H2O2-producing Lactobacillus crispatus CTV-05 was used by 9 women twice daily for three days. All 9 women were free of genital infection at enrollment, and 8 of the 9 women had endogenous Lactobacilli at enrollment.
Since many women are colonized vaginally and rectally by Lactobacilli, the technique, Repetitive Sequence Polymerase Chain Reaction (Rep PCR), was used to “fingerprint” the suppository strain of L. crispatus and thereby distinguish the suppository strain from endogenous strains of Lactobacilli.

[2] = Stability of viability: room temperature and refrigerated storage (plate count, MRS agar); assay type: physicochemical
Method: (1.5) Stability of viability: Samples of each evaluated strain were retained for shelf-life studies at room temperature and refrigerated storage. At selected time intervals, samples were tested for the number of colony-forming-units using the Plate Count method with MRS agar.
Strain CTV-05 was tested in a gelatin capsule suppository during storage at 55° C., 45° C., 35° C. and at room and refrigeration temperatures. […] Between the fourth and ninth weeks counts dropped to 9.8×10^7 per suppository and have remained at 10^7 for 25 months. […]

[3] = tested on: Candida albicans ATCC 60193 (cervical isolate); assay: Agar overlay zone of inhibition of yeast growth; assay type: cell-based
Method: (§1) MRS agar was allowed to harden at a 5 mm slant. Lactobacillus crispatus CTV-05 was streaked across the diameter of the plate and was grown for 24, 48 or 72 hours under both anaerobic and ambient atmospheres. Control strains of Lactobacillus jensenii CTV-01, Lactobacillus crispatus CTV-02, Lactobacillus crispatus CTV-03, and Lactobacillus crispatus CTV-04 were grown in the same way. The plates were overlayed with YM agar with 10 mM CNNaS (sodium thiocyanate, previously reported to be an inhibitor of yeast growth) or without CNNaS. The agar overlays were inoculated with one of two strains of Candida albicans ATCC 60193 (cervical isolate) or Candida albicans ATCC 14053 (human blood isolate). Zones of inhibition were measured. […] Therefore, Lactobacillus crispatus CTV-05 inhibits yeast growth in vitro.

[4] = tested on: Candida albicans ATCC 14053 (human blood isolate); assay: Agar overlay zone of inhibition of yeast growth; assay type: cell-based
Method: as §1

[5] = Cell to preservation matrix ratio: viability counts pre- and post-dry; assay type: physicochemical; settings: 30 microliter aliquots
Method: Experiments were conducted to determine the preservative capacity of the suspending medium by addition of different amounts of cells of strain CTV-05 per volume of medium. The Lactobacilli were grown anaerobically on 2 inch squares on MRS agar plates. A 2-inch square of agar is the equivalent of 10 ml of broth. The anticipated yield per plate was 2×10^9 CFUs. Inoculated matrix was preserved in aliquots of 30 microliters.

[6] = Lactobacillus grown anaerobically for 24, 48 or 72 hours
[7] = Lactobacillus grown under ambient atmosphere, with or without CNNaS
[8] = 4 plates/5 ml matrix, 24 hr. Growth Period
[9] = 4 plates/5 ml matrix, 48 hr. Growth Period
[10] = 6 plates/5 ml matrix, 24 hr. Growth Period
[11] = 6 plates/5 ml matrix, 48 hr. Growth Period
[12] = 8 plates/5 ml matrix, 24 hr. Growth Period
[13] = 8 plates/5 ml matrix, 48 hr. Growth Period
[14] = 10 plates/5 ml matrix, 24 hr. Growth Period
[15] = 10 plates/5 ml matrix, 48 hr. Growth Period

Substance: Lactobacillus crispatus CTV-05
- loss of viability ([1]; 35° C.): less than 1 log
- loss of viability ([1]; 45° C.): about 2 logs
- time within which viability was rapidly lost ([1]; 55° C.): ≤ 0.5 days
- inflammation, microscopically (white blood cells on vaginal smear) (normal, healthy women; 9 women): None of the women had evidence of inflammation
- side effects (normal, healthy women; 9 women): none complained of side effects
- women colonized by the suppository strain (normal, healthy women; 9 women, approximately 10^9 viable cells twice daily for three days, 2-3 days after last capsule): all of the women were colonized
- women remaining colonized (normal, healthy women; 9 women, at 1 month): 8 of 9
- vaginal colonization, Patient 103 (normal, healthy women; four weeks later): still colonized with CTV-05
- vaginal colonization, Patient 102 (normal, healthy women; one month visit): still colonized by L. crispatus CTV-05
- vaginal colonization, Patient 103 (normal, healthy women; one week after use twice daily for 3 days): colonized by CTV-05 as well as by another strain of Lactobacilli
- vaginal colonization, Patient 102 (normal, healthy women; one week visit after use of the suppository): colonized by three strains of Lactobacilli, which included (1) the suppository strain
- vaginal colonization, Patient 102 (normal, healthy women; one year after enrollment): colonized exclusively by the suppository strain
- CFUs per Suppository ([2]; Refrigerated (2-8° C.), 1 month): 5.20E+08 CFUs per Suppository
- CFUs per Suppository ([2]; Refrigerated (2-8° C.), 2 months): 2.20E+08 CFUs per Suppository
- CFUs per Suppository ([2]; Refrigerated (2-8° C.), 3 months): 2.30E+08 CFUs per Suppository
- CFUs per Suppository ([2]; Refrigerated (2-8° C.), 5 months): 2.80E+08 CFUs per Suppository
- CFUs per Suppository ([2]; Refrigerated (2-8° C.), 6 months): 1.70E+08 CFUs per Suppository
- CFUs per Suppository ([2]; Refrigerated (2-8° C.), 7 months): 2.60E+08 CFUs per Suppository
- CFUs per Suppository ([2]; Refrigerated (2-8° C.), 9 months): 3.10E+08 CFUs per Suppository
- CFUs per Suppository ([2]; Refrigerated (2-8° C.), 11 months): 2.50E+08 CFUs per Suppository
- CFUs per Suppository ([2]; Refrigerated (2-8° C.), 15 months): 9.20E+07 CFUs per Suppository
- CFUs per Suppository ([2]; Refrigerated (2-8° C.), 18 months): 1.50E+07 CFUs per Suppository
- CFUs per Suppository ([2]; Refrigerated (2-8° C.), 25 months): 5.00E+08 CFUs per Suppository
- CFUs per Suppository ([2]; Room Temperature (25° C. ± 5° C.), 1 month): 1.30E+08 CFUs per Suppository
- CFUs per Suppository ([2]; Room Temperature (25° C. ± 5° C.), 1 week): 3.80E+08 CFUs per Suppository
- CFUs per Suppository ([2]; Room Temperature (25° C. ± 5° C.), 2 months): 9.80E+07 CFUs per Suppository
- CFUs per Suppository ([2]; Room Temperature (25° C. ± 5° C.), 2 weeks): 3.20E+08 CFUs per Suppository
- CFUs per Suppository ([2]; Room Temperature (25° C. ± 5° C.), 3 months): 1.83E+07 CFUs per Suppository
- CFUs per Suppository ([2]; Room Temperature (25° C. ± 5° C.), 3 weeks): 3.05E+08 CFUs per Suppository
- CFUs per Suppository ([2]; Room Temperature (25° C. ± 5° C.), 4 months): 3.25E+07 CFUs per Suppository
- CFUs per Suppository ([2]; Room Temperature (25° C. ± 5° C.), 5 months): 3.80E+07 CFUs per Suppository
- CFUs per Suppository ([2]; Room Temperature (25° C. ± 5° C.), 6 months): 1.70E+07 CFUs per Suppository
- CFUs per Suppository ([2]; Room Temperature (25° C. ± 5° C.), 7 months): 1.60E+07 CFUs per Suppository
- CFUs per Suppository ([2]; Room Temperature (25° C. ± 5° C.), 9 months): 4.70E+07 CFUs per Suppository
- CFUs per Suppository ([2]; Room Temperature (25° C. ± 5° C.), 11 months): 2.80E+07 CFUs per Suppository
- CFUs per Suppository ([2]; Room Temperature (25° C. ± 5° C.), 15 months): 2.20E+06 CFUs per Suppository
- CFUs per Suppository ([2]; Room Temperature (25° C. ± 5° C.), 18 months): 4.70E+06 CFUs per Suppository
- CFUs per Suppository ([2]; Room Temperature (25° C. ± 5° C.), 25 months): 1.60E+07 CFUs per Suppository
- colony counts, stable level ([2]; refrigerated product, for 5 months): 10^8 per suppository
- colony counts after drop ([2]; room temperature, between the fourth and ninth weeks): 9.8×10^7 per suppository
- colony counts, stable level ([2]; room temperature, for 4 weeks): 10^8 per suppository
- colony counts, level maintained ([2]; room temperature, for 25 months): 10^7
- CFU value at which product remained stable after drop from 10^8 at 2 months ([2]; stored at room temperature (25° C. +5° C.), for 25 months): 10^7 CFU
- CFU value at which product was stable ([2]; stored refrigerated (2-8° C.), for 25 months): 10^8 CFU
- inhibition of Candida growth [3, 6]: effectively inhibited growth
- inhibition of Candida growth [3, 7]: unable to inhibit
- Zone of Inhibition (in millimeters) ([3]; Organism Growth Time Period 48 hours): 70 to 0 mm
- Zone of Inhibition (in millimeters) ([3]; Organism Growth Time Period 72 hours): 70 to 0 mm
- inhibition of Candida growth [4, 6]: effectively inhibited growth
- inhibition of Candida growth [4, 7]: unable to inhibit
- Actual Yields, Post-dry [5, 8]: 1.1 × 10^7 CFUs
- Actual Yields, Pre-dry [5, 8]: 7.9 × 10^7 CFUs
- Actual Yields, Post-dry [5, 9]: 6.1 × 10^8 CFUs
- Actual Yields, Pre-dry [5, 9]: 6.0 × 10^8 CFUs
- Actual Yields, Post-dry [5, 10]: 2.1 × 10^7 CFUs
- Actual Yields, Pre-dry [5, 10]: 1.9 × 10^8 CFUs
- Actual Yields, Post-dry [5, 11]: 3.0 × 10^8 CFUs
- Actual Yields, Pre-dry [5, 11]: 7.8 × 10^8 CFUs
- Actual Yields, Post-dry [5, 12]: 3.6 × 10^7 CFUs
- Actual Yields, Pre-dry [5, 12]: 6.9 × 10^7 CFUs
- Actual Yields, Post-dry [5, 13]: 4.3 × 10^8 CFUs
- Actual Yields, Pre-dry [5, 13]: 9.8 × 10^8 CFUs
- Actual Yields, Post-dry [5, 14]: 4.0 × 10^7 CFUs
- Actual Yields, Pre-dry [5, 14]: 6.7 × 10^7 CFUs
- Actual Yields, Post-dry [5, 15]: 4.1 × 10^8 CFUs
- Actual Yields, Pre-dry [5, 15]: 1.5 × 10^8 CFUs
